Legend:
[1] = test system: rabbit antisera to 24S-hydroxycholesterol (Day 77 bleed, rabbit #72); assay: Cross-reactivity in competitive 24HC enzyme immunoassay, antiserum of rabbit #72; type: binding; settings: for Bleed #72 % Cross reactivity: Table 3, repeat of the rabbit #72 antisera; for % Cross reactivity: Table 2, antiserum Day 77 bleed, rabbit #72, relative to 24HC
Protocol: (§1) 24HC Enzyme Immunoassay Protocol
(§2) 1. Known concentrations of 24HC were prepared in 100 mM phosphate, 150 mM NaCl, 1% BSA, pH 7.2 assay buffer containing biotinylated […] (described above) and added to wells of a 96 well microtiter plate that were coated with a goat anti-rabbit IgG antibody. Rabbit polyclonal antibody to 24HC was diluted to a limiting concentration in 100 mM Tris, 150 mM NaCl, 1% BSA buffer and 100 μL was added to each well. The plate was incubated at room temperature for 1 hour with orbital shaking. During this incubation the anti-24HC antibody binds to the goat anti-rabbit IgG antibody on the plate. Also, the 24HC standard competes with the biotinylated 24HC for anti-24HC antibody binding sites. Thus, with more 24HC standard, less biotinylated 24HC binds to the antibody binding sites on the plate.
(§3) 2. Following this incubation, the plate was washed 4 times with 300 μL of 50 mM Tris, 100 mM NaCl, 0.05% Tween-20 buffer. After washing, bound 24HC or bound biotinylated 24HC is bound to the binding sites on the anti-24HC antibodies.
(§4) 3. Streptavidin conjugated to HRP (200 μL), diluted in 100 mM phosphate, 150 mM NaCl, 1% BSA, pH 7.2 assay buffer, was then added to each well to allow detection of the biotinylated 24HC. The plate was then incubated at room temperature for 30 minutes.
(§5) 4. The plate was then washed 4 times with 300 μL of 50 mM Tris, 100 mM NaCl, 0.05% Tween-20 buffer to remove excess streptavidin-HRP conjugate. TMB substrate solution (200 μL) is added to each well. The plates were incubated at room temperature for 30 min.
(§6) 5. After color development, 50 μL of 1N HCl stop solution is added to each well to stop the substrate reaction. The resulting yellow color was read at 450 nm. […]. The intensity of yellow color is inversely proportional to the concentration of 24HC that was added to the well.
The multiple regression line shown therein has an R^2 of 0.996. The detectable range for 24HC for this assay is as shown is 1.56-100 ng/mL. The total assay time is 2 h.
Cross-reactivity of the antisera tested above (Day 77 bleed, rabbit #72) to the following structurally similar molecules was determined:
(§7) Cross-reactivities of antisera taken from another rabbit at Day 77 (rabbit #71), subjected to the same immunization protocol, as well as a repeat of the rabbit #72 antisera, were also determined.

[2] = test system: rabbit antisera to 24S-hydroxycholesterol (Day 77, rabbit #71); assay: Cross-reactivity in competitive 24HC enzyme immunoassay, antiserum of rabbit #71; type: binding; settings: Table 3; antiserum Day 77, rabbit #71
Protocol: as §1, §2, §3, §4, §5, §6, §7

Compound	Bleed #72 % Cross reactivity [1] [%]	Bleed #71 % Cross reactivity [2] [%]	% Cross reactivity [1] [%]
C[C@@H](CO)CCC[C@@H](C)[C@H]1CC[C@H]2[C@@H]3CC=C4C[C@@H](O)CC[C@]4(C)[C@H]3CC[C@]12C [27-Hydroxycholesterol]	<0.001	0.022	
C[C@H](CCCC(C)(C)O)[C@H]1CC[C@H]2[C@@H]3CC=C4C[C@@H](O)CC[C@]4(C)[C@H]3CC[C@]12C [25-Hydroxycholesterol]	0.725	0.19	
CC(C)CC[C@@H](O)[C@@H](C)[C@H]1CC[C@H]2[C@@H]3CC=C4CC(O)CC[C@]4(C)[C@H]3CC[C@]12C (stereo in doubt) [22-Hydroxycholesterol]	0.11	0.020	0.15
CC(C)CCC[C@@H](C)[C@H]1CC[C@H]2[C@@H]3CC=C4C[C@@H](O)CC[C@]4(C)[C@H]3CC[C@]12C [Cholesterol]	0.003	0.002	<0.001
C[C@]12CC[C@H](O)CC1=CC[C@@H]1[C@@H]2CC[C@]2(C)C(=O)CC[C@@H]12 [DHEA]	0.018	0.015	0.05

From patent US10197583B2, “Hydroxycholesterol immunoassay” (ENZO LIFE SCIENCES, INC. C/O ENZO BIOCHEM, INC., priority 2010, dated 2019)
